Laboratory results published in US7569724B2, “Carbamic acid compounds comprising an amide linkage as HDAC inhibitors” (Topotarget UK Limited, priority 2000, dated 2009).
pIC50: −log10 of the molar value. Read-outs that look alike come from different tables or passages of the source.

Legend:
[1] = system: JURKAT human T-cell line; test: Secondary assay: cell proliferation WST-1, Jurkat; assay type: cell-based; conditions: 48 h; for pIC50: Homo sapiens, read-out: Cell Proliferation Inhibition WST-1 (IC50 unless otherwise specified) Jurkat
Protocol: (§1) Compounds with HDAC inhibition activity, as determined using the primary assay, were subsequently evaluated using secondary cell-based assays. The following cell lines were used:
JURKAT—Human T-cell line (ATCC no. TIB-152).
(§2) Cells were plated in 96-well plates at 3-10×10^3 cells/well in 100 μL of culture medium. The following day, different concentrations of candidate compounds were added and the cells incubated at 37° C. for 48 h. Subsequently, 10 μL/well of WST-1 reagent was added and the cells reincubated for 1 hour. After the incubation time, absorbance was measured.
(§3) WST-1 is a tetrazolium salt which is cleaved to formazan dye by cellular enzymes. An expansion in the number of viable cells results in an increase in the overall activity of mitochondrial dehydrogenases in the sample. This augmentation in the enzyme activity leads to an increase in the amount of formazan dye formed, which directly correlates to the number of metabolically active cells in the culture. The formazan dye produced is quantified by a scanning multiwell spectrophotometer by measuring the absorbance of the dye solution at 450 nm wavelength (reference wavelength 690 nm).
(§4) Percent activity (% activity) in reducing the number of viable cells was calculated for each test compound as: % activity={(S^C−B)/(S^o−B)}×100 wherein S^C denotes signal measured in the presence of the compound being tested, S^o denotes signal measured in the absence of the compound being tested, and B denotes the background signal measured in blank wells containing medium only.
(§5) IC50 values were calculated using the software package Prism 3.0 (GraphPad software Inc., San Diego, Calif.), setting top value at 100 and bottom value at 0.

[2] = system: HeLa cells; test: Secondary assay: cell proliferation WST-1, HeLa; assay type: cell-based; conditions: Homo sapiens, 48 h, read-out: Cell Proliferation Inhibition WST-1 (IC50 unless otherwise specified) HeLa
In short: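 Absorbance at 450 nm (reference 690 nm); % activity vs untreated after blank subtraction, IC50 fitted with top 100 and bottom 0.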

[3] = system: K11 HPV E7 transformed human keratinocyte line; test: Secondary assay: cell proliferation WST-1, K11; assay type: cell-based; conditions: for pIC50: Homo sapiens, Keratinocyte, read-out: Cell Proliferation Inhibition WST-1 (IC50 unless otherwise specified) K11
Protocol: as §1
K11—HPV E7 transformed human keratinocyte line provided by Pidder Jansen-Duerr, Institut für Biomedizinische Alternsforschung, Innsbruck, Austria.
as §2, §3, §4, §5

[4] = system: HDAC (HeLa cell extract); test: Primary assay: deacetylase activity, HeLa cell extract as source of HDAC; assay type: biochemical, human; conditions: HeLa cell extract
In short: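 Crude HeLa extract (freeze-thaw in 60 mM TrisCl pH 8.0, 450 mM NaCl, 30% glycerol) was incubated 1 h at 37° C with a [³H]acetyl-labelled histone H4 N-terminal peptide in 20 mM Tris pH 7.4, 10% glycerol.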

[5] = read-out: HDAC Inhibition (IC50 unless otherwise specified) HeLa

SMILES	pIC50 [1]	melting point	pIC50 [2]	pIC50 ([3]; 48 h)	pIC50 [4, 5]	HDAC Inhibition HeLa, percent ([4]; @ 500 nM)	pIC50 ([4]; comparative tables, read-out: HeLa IC50)	HDAC Inhibition HeLa, percent ([4]; @ 100 nM)	pIC50 ([3]; K11, 48 h)	Cell Proliferation Inhibition WST-1 (IC50 unless otherwise specified) Jurkat [1]	Cell Proliferation Inhibition WST-1 (IC50 unless otherwise specified) K11 ([3]; K11, 48 h)
O=C(CCCCCCNC(=O)c1ccc2ccccc2c1)NO [PX106493, Naphthalene-2-carboxylic acid (6-hydroxycarbamoyl-hexyl)-amide]	6.70	136 to 137 °C	6.44	5.68	–	–	–	–	–	–	–
O=C(CCCCCCCNC(=O)c1ccc2ccccc2c1)NO [PX106515, Naphthalene-2-carboxylic acid (7-hydroxycarbamoyl-heptyl)-amide]	5.57	138 to 139 °C	5.44	5.74	7.56	–	–	–	–	–	–
O=C(CCCCCCC(=O)NCC(O)c1ccccc1)NO (centres unmarked) [PX116226, Octanedioic acid hydroxyamide (2-hydroxy-2-phenyl-ethyl)-amide]	5.49	100 to 102 °C	5.39	5.29	6.25	–	–	–	–	–	–
CN(CCCCCC(=O)NO)C(=O)/C=C/C=C/c1ccccc1 [PX116234]	5.57	145 to 147 °C	5.47	5.44	7.82	–	–	–	–	–	–
O=C(/C=C/c1cccn1-c1ccc(Cl)cc1)NCCCCCC(=O)NO [PX116235, E-3-[1-(4-Chlorophenyl)-1H-pyrrol-2-yl]-N-(5-hydroxycarbamoylpentyl)acrylamide]	6.15	–	6.00	5.59	8.00	–	–	–	–	–	–
O=C(CCCCCCC(=O)NC/C=C/c1ccccc1)NO [PX117416, Octanedioic acid hydroxyamide (3-phenyl-allyl)-amide]	5.44	133 to 133.5 °C	5.13	5.07	–	75% @ 500 nM	–	–	–	–	–
O=C(CCCCCCC(=O)NCCc1ccccc1)NO [PX117419, Octanedioic acid hydroxyamide phenethyl-amide]	5.46	–	4.89	< 4.52	–	46% @ 500 nM	–	–	–	–	–
O=C(CCCCCCC(=O)NCCCc1ccccc1)NO [PX117420, Octanedioic acid hydroxyamide (3-phenyl-propyl)-amide]	5.28	97 to 98 °C	4.82	4.63	–	73% @ 500 nM	–	–	–	–	–
O=C(/C=C/c1cccc(Oc2ccccc2)c1)NCCCCCC(=O)NO [PX117430, E-N-(5-Hydroxycarbamoylpentyl)-3-(3-phenoxyphenyl)acrylamide]	5.34	–	4.57	5.36	7.07	–	–	–	–	–	–
O=C(C=C(c1ccccc1)c1ccccc1)NCCCCCC(=O)NO [PX117436, E-N-(5-Hydroxycarbamoylpentyl)-3,3-diphenylacrylamide]	5.46	–	5.07	< 4.52	–	64% @ 500 nM	–	–	–	–	–
O=C(/C=C/C=C(c1ccccc1)c1ccccc1)NCCCCCC(=O)NO [PX117437, 2E-5,5-Diphenylpenta-2,4-dienoic acid (5-hydroxycarbamoylpentyl)amide]	5.85	–	5.43	5.47	–	95% @ 500 nM	–	–	–	–	–
O=C(/C=C/c1cccc2ccccc12)NCCCCCC(=O)NO [PX117441, N-(5-Hydroxycarbamoyl-pentyl)-3-naphthalen-1-yl-acrylamide]	5.37	135 to 137 °C	4.77	5.31	7.32	–	7.32	–	–	–	–
O=C(CCCCCNC(=O)CC=C(c1ccccc1)c1ccccc1)NO [PX117454, E-4,4-Diphenylbut-3-enoic acid (5-hydroxycarbamoylpentyl)amide]	5.47	–	4.82	4.89	6.58	–	–	–	–	–	–
O=C(/C=C/c1cccc(NC(=O)/C=C/C=C/c2ccccc2)c1)NO [PX117706, N-{3-[(E)-3-(Hydroxyamino)-3-oxo-1-propenyl]phenyl}-5-phenyl-(2E,4E)-pentadienamide]	5.74	–	4.52	5.16	6.49	–	–	–	–	–	–
CC(/C=C/C(=O)Nc1cccc(/C=C/C(=O)NO)c1)=C\c1ccccc1 [PX117707, N-{3-[(E)-3-(Hydroxyamino)-3-oxo-1-propenyl]phenyl}-4-methyl-5-phenyl-(2E,4E)-pentadienamide]	5.82	145 to 148 °C	4.37	5.11	6.63	–	–	–	–	–	–
O=C(/C=C/c1cccc(NC(=O)/C=C/c2ccc3c(c2)OCO3)c1)NO [PX117711, (E)-3-(1,3-Benzodioxol-5-yl)-N-{3-[(E)-3-(hydroxyamino)-3-oxo-1-propenyl]phenyl}-2-propenamide]	6.04	128 °C	5.01	5.10	6.36	–	–	–	–	–	–
O=C(/C=C/c1ccc(C(F)(F)F)cc1)NCCCCCC(=O)NO [PX117717, N-(5-Hydroxycarbamoyl-pentyl)-3-(4-trifluoromethyl-phenyl)-acrylamide]	6.39	132 to 134 °C	5.23	5.63	7.66	–	–	–	–	–	–
O=C(/C=C/c1cccc(OC(F)(F)F)c1)NCCCCCC(=O)NO [PX117718, N-(5-Hydroxycarbamoyl-pentyl)-3-(3-trifluoromethoxy-phenyl)-acrylamide]	5.36	109 to 111 °C	4.41	5.43	7.17	–	–	–	–	–	–
O=C(/C=C/c1ccc(Cl)cc1F)NCCCCCC(=O)NO [PX117719, 3-(4-Chloro-2-fluoro-phenyl)-N-(5-hydroxycarbamoyl-pentyl)-acrylamide]	6.25	–	5.17	6.03	–	–	–	–	–	–	–
O=C(CCCCCCC(=O)Nc1ccc(-c2ccccc2)cc1)NO [PX117720, Octanedioic acid biphenyl-4-ylamide hydroxamide]	6.59	227 to 229 °C	5.74	5.60	7.40	–	–	–	–	–	–
CC(C)(C(=O)NCCCCCC(=O)NO)c1ccc(Cl)cc1 [PX117722, 6-[2-(4-Chlorophenyl)-2-methyl-propionylamino]-hexanoic acid hydroxyamide]	5.06	–	–	< 4.52	< 7.00	–	–	–	–	–	–
O=C(CCCCCNC(=O)c1sccc1OCc1ccccc1)NO [PX117723]	5.92	–	–	5.00	–	46% @ 500 nM	–	–	–	–	–
O=C(CCCCCNC(=O)c1ccc(Oc2ccccc2)cc1)NO [PX117726]	5.00	–	–	5.39	–	35% @ 500 nM	–	–	–	–	–
O=C(CCCCCNC(=O)Cc1ccccc1OCc1ccccc1)NO [PX117728]	5.39	–	–	4.55	< 7.00	–	–	–	–	–	–
Cc1ccc(C(CC(=O)NCCCCCC(=O)NO)NC(=O)OCc2ccccc2)cc1 (centres unmarked) [PX117729, [2-(5-Hydroxycarbamoyl-pentylcarbamoyl)-1-p-tolyl-ethyl]-carbamic acid benzyl ester]	5.55	146 to 148 °C	4.48	4.64	–	–	–	13% @ 100 nM	–	–	–
C/C(C(=O)NCCCCCC(=O)NO)=C(/C)c1ccccc1 [PX117737, E-2-Methyl-3-phenylbut-2-enoic acid (5-hydroxycarbamoylpentyl)amide]	5.66	–	4.49	< 4.52	5.92	–	–	–	–	–	–
O=C(CCCCCNC(=O)[C@H](Cc1c[nH]c2ccccc12)NC(=O)c1ccc2ccccc2c1)NO [PX117783, (S)-Naphthalene-2-carboxylic acid [1-(5-hydroxycarbamoyl-pentylcarbamoyl)-2-(1H-indol-3-yl)-ethyl]-amide]	5.80	–	5.22	–	7.00	–	–	–	5.01	–	–
O=C(CCCCCNC(=O)[C@H](Cc1c[nH]c2ccccc12)NC(=O)CCCNC(=O)OCc1ccccc1)NO [PX117785, (S)-Carbamic acid, [4-[[2-[[6-(hydroxyamino)-6-oxohexyl]amino]-1-(1H-indol-3-ylmethyl)-2-oxoethyl]amino]-4-oxobutyl]-, phenylmethyl ester]	–	–	–	–	6.72	–	–	–	–	Inactive	Inactive
